The values that follow are results of earlier work, collected in patent US20240164377A1, “LOW VOLATILITY PROMOTING WATER CONDITIONING ADJUVANTS” (Adjuvants Unlimited LLC, priority 2014, published 2024).

Take `COc1c(Cl)ccc(Cl)c1C(=O)O.NCCOCCO` [diglycolamine salt of dicamba]: for the setting “background statement”, the “Volatility compared with another salt (in words)” value is reported as “lower volatility than the dimethylamine salt of dicamba”. With `COc1c(Cl)ccc(Cl)c1C(=O)O` [free acid form of dicamba, 3,6-dichloro-2-methoxybenzoic acid], where the note is “reported, see WO 2011/019652 A2”, the “Volatility relative to the diglycolamine salt” value was “about 100 times”.
